Ends that are not written are not given here.
Legend:
[1] = tested on: USP auxiliary domains and full-length CYLD and USP7 (baits); test: ProP-PD selections against the HD2 library; type: binding, human; conditions: for mean_counts_% / specificity: ProP-PD peptide level
Protocol: We generated a collection of 29 USP ADs and two full-length USPs (CYLD and USP7). The collection was biased towards domains that are present in several USPs, such as zf-UBP domains, UBL domains and DUSP domains (Suppl. Data 1). We also included ADs only found in specific USPs, such as the three CAP-Gly domains of CYLD and the C-terminal domain of USP25. […] The peptide-coding regions of the phage pools were analyzed by next-generation sequencing (NGS), mapped to the corresponding proteins, and filtered for high/medium confidence ligands based on established criteria (with confidence level 4 being the highest).
(§1) Proteins were expressed in Escherichia coli (E.coli) BL21-Gold (DE3) bacteria. The cDNAs encoding N-terminal 6-histidine-glutathione S-transferase tagged (6xHis-GST), 6xHis-tagged or GST-tagged protein domains in pETM33, pETM11, pGEX6P1 expression vectors respectively, were obtained from Genescript or kindly provided by MRC-PPU (Suppl. Data 1) The bacteria were transformed with the plasmid and grew at 37 °C in 2YT (5 g/L NaCl, 16 g/L tryptone and 10 g/L yeast extract) supplemented with Kanamycin (30 μg/mL) until reaching an OD600 of 0.7. Protein expression was induced with 0.3 mM isopropyl β-D-1 thiogalactopyranoside (IPTG) for 18 h at 18 °C while shaking. For zinc-finger domains, 50 μM of ZnSO4 was added during expression. The bacterial cultures were pelleted for 15 minutes at 4000 x g at 4 °C and stored at −20 °C until purification. The pellets were resuspended in lysis buffer (1× phosphate-buffered saline (PBS), 0.5 % Triton-X, 5 mM MgCl2, 10 μg/mL lysozyme, cOmplete^TM EDTA-free protease inhibitor cocktail (Roche), 10 μg/mL DNAseI) and incubated for 1 h shaking at 4 °C. […] The supernatant was incubated with glutathione (GSH) Sepharose (Cytiva) or Ni2+ Sepharose (Cytiva) for 1 h at 4 °C while shaking. The beads with the bound protein were washed with 1x PBS and eluted with 10 mM reduced glutathione in 50 mM Tris pH 8.0. For fluorescence polarization experiments, the proteins were not eluted from the beads, and the 6xHis-GST tag was cleaved overnight on GSH Sepharose beads at 4 °C while shaking with PreScission Protease in cleavage buffer (50 mM Tris pH 7.5, 150 mM NaCl, 1 mM DTT). The sample containing the cleaved domain was separated from the tag and protease and buffer-exchanged to 50 mM sodium phosphate buffer pH 7.4 with 1 mM DTT using a PD-10 desalting column (Cytiva). The purity and size of the proteins were analyzed by SDS-PAGE electrophoresis.
The human disorderome library was used for four rounds of phage display selections. GST-tagged, 6xHis-tagged or GST-6xHis purified proteins were used as baits and GST was used as control by immobilization on a 96-well MaxiSorp plate (Nunc) overnight at 4 °C while shaking (10 μg of protein in 100 μL PBS). The wells containing the immobilized proteins were blocked with 0.5% BSA in PBS for 1 hour at 4 °C while shaking. The phage library was prepared by precipitation in 1/5th volume PEG/NaCl (20% PEG-8000 + 0.4 M NaCl), incubated for 10 min on ice, followed by centrifugation at 10,000 × g for 10 min at 4 °C and resuspended in PBS. The GST-coated wells were washed four times with 0.05% Tween 20 in PBS, and 100 μL/well phage library was added and incubated 1 h at 4 °C while shaking. The protein-coated wells were washed four times with 0.05% Tween 20 in PBS, and the phage solution from the GST-coated wells was transferred to the protein-coated wells and incubated 2 h at 4 °C while shaking. The unbound phages were removed by washing 5 times with 0.05% Tween 20 in PBS, and the bound phages were eluted with 100 μL/well log-phase E.coli OmniMAX by incubating for 30 min at 37 °C while shaking. M13KO7 helper phages (10^11 PFU/mL) were added to each well and incubated for 45 min at 37 °C while shaking. […]

[2] = molecular target: T1, USP20 DUSP2 domain (Homo sapiens, UniProt Q9Y2K6); test: Peptide SPOT array, USP20 DUSP2; type: binding; conditions: for Average: peptide SPOT array intensity minus background, mean of 2 replicas; for Average / Normalize to peptide with higher intensity %: sheet S5A; for Normalize to higher intensity (%) / Normalize to peptide with higher intensity %: peptide SPOT array; for Normalize to higher intensity (%): USP20 DUSP2, average normalised to the highest intensity (ARNTL2 = 100); for Normalize to peptide with higher intensity %: average normalized to the peptide with highest intensity (ARNTL2 = 100);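 for all read-outs here: GST-tagged domain probed overnight at 4 °C on peptides made on cellulose membranes, bound protein detected via HRP-coupled anti-GST antibody, spot intensity from image analysis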
T1 construct: USP20_DUSP2; Q9Y2K6; DUSP2; 776; 894; 6xHis-GST (N, cleaved yes); made in house; host or cells: Escherichia coli BL21-Gold (DE3)
Protocol: (§2) Peptides were synthesized on cellulose membranes with standard Fluoroenylmethylox-ycarbonyl (Fmoc) chemistry using a Multipep automated synthesizer at INTAVIS (Tübingen, Germany) or ordered from JPT (PepSpots). The membranes were activated with methanol for 5 min and washed three times for 5 min with TBST (50 mM Tris, 137 mM NaCl, 2.7 mM KCl, pH 8.0, 0.05% Tween-20). The membranes were incubated with blocking buffer (5% skim milk powder in TBST) for 2 h at room temperature while shaking. The membranes were incubated with the GST-tagged protein diluted at the desired concentration in blocking buffer and incubated overnight at 4 °C while shaking. The membrane was rinsed 3 times with TBST and incubated with HRP-conjugated anti-GST antibody (Cytiva, RPN1236; 1:3000 dilution) in blocking buffer for 1 h at 4 °C while shaking. […] The images were analyzed in Fiji (ImageJ2 version 2.9.0).

[3] = molecular target: T2, USP33 DUSP2 domain (Homo sapiens, UniProt Q8TEY7); test: Peptide SPOT array, USP33 DUSP2; type: binding; conditions: average normalised to the highest intensity (CCDC88B = 100)
T2 construct: USP33_DUSP2; Q8TEY7; DUSP2; 806; 921; 6xHis-GST (N, cleaved yes); made in house; host or cells: Escherichia coli BL21-Gold (DE3)
T2 sequence (Q8TEY7 with tags, fused parts or gaps): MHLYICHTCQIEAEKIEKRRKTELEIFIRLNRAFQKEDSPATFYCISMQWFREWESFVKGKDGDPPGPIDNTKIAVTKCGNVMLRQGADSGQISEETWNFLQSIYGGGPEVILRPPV
Protocol: as §2

[4] = molecular target: T2, USP33 DUSP2 domain; test: FP-monitored affinity measurements, USP33 DUSP2; type: binding; conditions: competitive FP: unlabeled peptide (N-acetylated, C-amidated) against protein with 10 nM FITC-labeled peptide; 50 mM phosphate pH 7.4, room temperature; technical triplicate; read-out: KD, USP33 DUSP2
Protocol: as §1
The measurements were performed at room temperature in a non-binding black half area 96-well plate (Corning) with a total volume of 50 μL per well. Peptides were obtained from GeneCust (France) with >95% purity. FITC-labeled peptides (N-terminally FITC-labeled without spacer and C-terminally amidated) were dissolved in dimethyl sulfoxide (DMSO), and unlabeled peptides (N-terminally acetylated and C-terminally amidated) were dissolved in 50 mM phosphate buffer pH 7.4. Saturation measurements were performed using a serial dilution of the protein domains in phosphate buffer (25 μL) and the addition of 10 nM FITC-labeled peptide (in phosphate buffer supplemented with 2 mM DTT) (25 μL). […] All measurements were performed in three technical replicates. The data were analyzed using GraphPad Prism version 9.2.0 for MacOS (GraphPad Software, San Diego, California USA, www.graphpad.com). The saturation curves were fitted to the quadratic equation, and the displacement curves were fitted to a sigmoidal dose-response equation as described previously.

[5] = bait CYLD_CAP-Gly-2 (Q9NQC7 235-307)
[6] = bait CYLD_CAP-Gly-2 (Q9NQC7 235-307), collapsed regions of overlapping peptides
[7] = bait CYLD_CAP-Gly-1 (Q9NQC7 8-210), collapsed regions of overlapping peptides

T1 sequence (Q9Y2K6 with tags, fused parts or gaps): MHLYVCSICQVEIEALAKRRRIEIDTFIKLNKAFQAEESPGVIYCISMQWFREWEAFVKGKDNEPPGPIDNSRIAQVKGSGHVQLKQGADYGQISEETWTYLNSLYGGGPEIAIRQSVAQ

| Compound | Average [2] | Normalize to higher intensity (%) [2] [%] | Normalize to peptide with higher intensity % [2] [%] | Normalize to higher intensity (%) [3] [%] | other results |
| --- | --- | --- | --- | --- | --- |
| TWWDRYEEFVGLNEVR | – | – | – | – | mean_counts_% [1, 5]: 3.88%; specificity [1, 5]: 0.28; max_specificity [1, 6]: 0.28 |
| Ac-PYIPMDKDFQLRSFDQLS-NH2 [D570K] | – | – | – | – | Kd [4]: 10 µM |
| CC[C@H](C)[C@H](NC(=O)[C@H](Cc1ccc(O)cc1)NC(=O)[C@@H]1C[C@@H](O)CN1C(C)=O)C(=O)N1CCC[C@H]1C(=O)N[C@@H](CCSC)C(=O)N[C@@H](CC(=O)O)C(=O)N[C@@H](CC(=O)O)C(=O)N[C@@H](CC(=O)O)C(=O)N[C@@H](Cc1ccccc1)C(=O)N[C@@H](CCC(N)=O)C(=O)N[C@@H](CC(C)C)C(=O)N[C@@H](CCCNC(=N)N)C(=O)N[C@@H](CO)C(=O)N[C@@H](Cc1ccccc1)C(=O)N[C@@H](CC(=O)O)C(=O)N[C@@H](CCC(N)=O)C(=O)N[C@@H](CC(C)C)C(=O)N[C@@H](CO)C(N)=O [HyPro-HIF1A564-581] | – | – | – | – | Kd [4]: 7 µM |
| SQQDAQEFLRALMDLL | – | – | – | – | mean_counts_% [1, 5]: 30.84%; specificity [1, 5]: 0.87; max_specificity [1, 6]: 0.87 |
| WRFEQLEWRSILLDMA | – | – | – | – | max_specificity [1, 6]: 0.60 |
| KEQLSSFDISPREKLI [ARNTL2] | 178.582 | 100 | 100 | 36.7483 | – |
| PYIPMDDDFQARSFDQLS [L574A] | – | – | – | – | Kd [4]: > 200 µM |
| EEDVLAFNLQHLATLA [BAHCC1_1] | -22.4783 | -12.59 | -12.5871 | 29.5039 | – |
| VAEMVALVEQRAALAL | – | – | – | – | mean_counts_% [1, 5]: 0.0147%; specificity [1, 5]: 0.48 |
| PDAELQRMEQEAERRR [RBM25_558-573] | – | – | – | – | specificity ([1]; bait CYLD_CAP-Gly-1 (Q9NQC7 8-210)): 0.95; max_confidence [1, 7]: 2; max_specificity [1, 7]: 0.95 |
| ATLATAWSLVEAAGLD [BAHCC1_2] | -15.5033 | -8.681 | -8.681 | -24.9243 | – |
| EKEDSCFELLHRAVGH [ASB8] | -31.4033 | -17.58 | -17.5849 | 10.516 | – |
| VAEMVALVEQRA | – | – | – | – | max_specificity [1, 6]: 1.00 |
| DLLSVAEMVALVEQRA [FBXO46_168-183] | – | – | – | – | mean_counts_% [1, 5]: 16.99%; specificity [1, 5]: 1.00 |

The next lines start with results.

| Average [2] | Normalize to higher intensity (%) [2] [%] | Normalize to peptide with higher intensity % [2] [%] | Normalize to higher intensity (%) [3] [%] | Compound | other results |
| --- | --- | --- | --- | --- | --- |
| -8.778 | -4.916 | -4.916 | -0.2743 | MNFNVWNIKEMLSIPS [IHO1] | – |
| -16.4483 | -9.211 | -9.211 | 68.6966 | EAGLALRTDLQGEAQI [ZNF783] | – |
| 7.792 | 4.363 | 4.363 | 22.3834 | NGLDIAPRYFGFIKAC [SLC17A1] | – |
| 138.987 | 77.83 | 77.8281 | 61.0297 | KMGSDEFDISPRISKQ [MGA] | – |
| -0.4433 | -0.2483 | -0.2483 | 1.956 | EGTEVAFPLLVSHRSQ [EMSY] | – |
| 27.0767 | 15.16 | 15.1621 | 19.7113 | GGLTDLSSLIQAGQQF [SGTB] | – |
| -28.3983 | -15.9 | -15.9022 | -36.2833 | VKHPRFFALFEKHGGY [PPIP5K1] | – |
| 40.0217 | 22.41 | 22.4108 | 25.9612 | QPIDNSFDIQSRDCIS [MAP3K4] | – |
| 44.4667 | 24.9 | 24.8999 | 27.858 | LRHPSGWWLVENEDRQ [NOXO1] | – |
| 51.5267 | 28.85 | 28.8533 | 42.7122 | RLQKDIWDIQMRSKSL [GBP2] | – |
| 72.2767 | 40.47 | 40.4726 | 49.982 | KGHSRDFVLRRDLSAT [ZIC5] | – |

From publication PMC13376213, “Systematic discovery of motif-based interactions of the auxiliary domains of USP family deubiquitinases” (Nature Communications, 2026)
